The record followed here is patent US11191855B2, “1,7-diaryl-1,6-heptadiene-3,5-dione derivatives, methods for the production and use thereof” (UNIVERSITÄTSKLINIKUM REGENSBURG, priority 2015, dated 2021).

Where two headings read alike, the source gives them in different places.

In assay [1] the test system is E. coli ATCC 25922. Nature of the assay: Phototoxicity test c.1) (LED array 430-435 nm, CFU count by Miles and Misra). The class given is cell-based, Escherichia coli. Particulars: Escherichia coli, ATCC25922, light or radiation study, light dose 33.8 J/cm^2, approx. 435 nm, 60 min at 9.4 mW/cm^2, vs reference control; for log reduction at 10 µM: read-out: Effectiveness against E. Coli: Reduction in CFU in log10 at concentration of 10 μM; for log reduction at 50 µM: read-out: Effectiveness against E. Coli: Reduction in CFU in log10 at concentration of 50 μM. The method, then: (§1) A sample of the bacterial cell Staphylococcus. aureus (ATCC number: 25923) or Escherichia. coli (ATCC number: 25922) was removed from a cryo-freeze culture and cultured under aerobic conditions at 37° C. and 175 rpm overnight in an orbital shaker (MAXQ4000, Thermo Scientific, Dubuque, Iowa, USA). Growth was carried out in 20 mL Todd-Hewitt broth (Carl Roth, Karlsruhe, Germany) supplemented with 0.3% of yeast extract (AppliChem, Darmstadt, Germany).
Subsequently, dilutions (0, 5, 10, […] and 20% v/v of the overnight culture) and their absorptions were measured at 600 nm in triplicate for 100 μL (Infinite 200 M Pro, Tecan, Mannedorf, Switzerland). A calibration graph (Microsoft Excel) was used to calculate the volume which was required to produce 20 mL of a culture with an absorption of 0.05 at 600 nm. The volume calculated for the overnight culture was topped up with Todd-Hewitt broth (composition as above) to 20 mL and incubated for two hours at 37° C. with constant movement (175 rpm, MAXQ4000). The cultures were then in the exponential growth phase; the absorption at 600 nm was between 0.3 and 0.45.
A 2-hour culture was divided into 1800 μL aliquots. After centrifuging at 20° C., 830 rcf, 5 min (5417R centrifuge, Eppendorf, Hamburg, Germany), the pellets were re-suspended in phosphate buffer (Dulbeccos' Modified Phosphate Saline, DPBS, Sigma-Aldrich) with either 10 or 50 μM of the corresponding photosensitizer, wherein the final volume was kept at 1800 μL.
The solutions obtained were immediately incubated on the orbital shaker (see above for parameters) for 5 or 25 minutes.
Three controls were run at the same time for each photosensitizer. The “light only” control contained DPBS without photosensitizer. The “photosensitizer only” (“PS only”) control was incubated like the PDI samples, but not irradiated and kept strictly in darkness. A further control (double negative, “Co−/−”), received neither light nor photosensitizer.
After the incubation, duplicates of the samples (500 μL each) were transferred into a 24-well microtitre plate (Cellstar, Greiner Bio-One, Frickenhausen, Germany). The “PS only” and “Co −/−” samples were placed in their own microtitre plate which was packed in aluminium foil so as to be lightproof.
The irradiation was carried out under constant shaking (MTS4, IKA, Staufen, Germany, 175 rpm) from below on a LED array with maximum homogeneity of the lighting surface. All of the controls were shaken in the same manner. The technical data for the light source are shown in Table 2; the total dose of light applied was 33.8 J/cm^2.
The determination of the colony forming units (CFU) was carried out in accordance with the method published by Miles and Misra (Miles, A A; Misra, S S, Irwin, J O (1938 Nov.). “The estimation of the bactericidal power of the blood” The Journal of hygiene 38 (6): 732-49). In this regard, serial dilutions (1:10) of the corresponding bacterial suspension were produced in DPBS. 5×10 μL of each bacterial dilution was then dripped onto Todd-Hewitt plates (with broth, additional 1.5% agar (Agar-Agar, Kobe I, Roth, Karlsruhe, Germany) and incubated at 37° C. for 24 h. Next, the number of surviving colony forming units was determined. All of the tests were carried out four times.
The photosensitizers were tested against the bacterial strain E. coli ATCC 25922. FIGS. 1-20 show the measured surviving colony forming units (CFU).
The average reference control (arithmetic mean with standard deviation) (no light, no PS) was 3.6×10^8/mL. The logarithmic reduction after illumination is shown with respect to the reference control. The respective upper value, indicated by a *, refers to an incubation period of 5 min and the respectively lower value, indicated by a #, refers to an incubation period of 25 min.

Assay [2] relates to E. coli ATCC 25922. The experiment in a line: Phototoxicity test c.2) (BlueV light source, emission maximum approx. 420 nm, CFU count). The class given is cell-based, Escherichia coli. The note with it: light dose 15.7 J/cm^2, approx. 420 nm, 15 min at 17.5 mW/cm^2, vs reference control. The procedure:
as §1
In a second experiment, the photosensitizers (PS) used were dissolved in Millipore water and adjusted to various concentrations. 25 μL of a bacterial suspension grown overnight (˜108/mL) was incubated with 25 μL of photosensitizer solution of the various concentrations at room temperature for 10 seconds in darkness in a 96-well plate.
Next, the suspension was irradiated for 5-20 minutes. For the irradiation, the light source BlueV from Waldmann (Villingen-Schwenningen, Germany) was used, which emits light from 380 to 480 nm (emission maximum at approximately 420 nm). The applied energy density was 17.5 mW/cm^2.
Each experiment was accompanied by three controls in order to exclude side effect of the irradiation/photosensitizer (PS) on the survival of the bacteria: (i) no PS, only light (=light control), (ii) no light, only PS (=dark control) and (iii) neither light nor PS (=reference control). The determination of the colony forming units (CFU) per mL was also carried out in accordance with the method published by Miles, Misra and Irwin described above in section c.1). All of the tests were carried out four times.
The photosensitizers (PS) SACUR-01a, SACUR-03 and SACUR-07 were tested against the bacterial strains S. aureus ATCC 25923 and E. coli ATCC 25922 (FIGS. 21-23). All of the remaining PS were tested against S. aureus ATCC 25923 (FIGS. 24-33). FIGS. 21-33 show the logarithmic reduction after illumination with respect to the reference control.
The average reference control (arithmetic mean with standard deviation) (no light, no PS) was 3.6×10^8/mL for E. coli. The logarithmic reduction after illumination is shown with respect to the reference control.

Setting [3] is: 5 min, incubation period 5 min (upper value, *).
The mark [4] stands for this setting: 25 min, incubation period 25 min (lower value).

As for `COc1cc(/C=C/C(=O)CC(=O)/C=C/c2ccc(OCCN)c(OC)c2)ccc1OCCN.Cl.Cl` [Curcumin 01a hydrochloride], in the assay with E. coli ATCC 25922 [1] (setting [3]), the log reduction at 10 µM was above 1 and the log reduction at 50 µM is above 5. Besides, in the assay with E. coli ATCC 25922 [1] (setting [4]), the log reduction at 10 µM was above 2 and the log reduction at 50 µM was above 5. Also, in the assay on E. coli ATCC 25922 [2], the “Effectiveness against E. Coli: Reduction in CFU in log10 at concentration of 10 μM” value was above 4 log10 and the “Effectiveness against E. Coli: Reduction in CFU in log10 at concentration of 50 μM” value is given as above 5 log10.

Turning to `Cl.Cl.Cl.Cl.NCCOc1ccc(/C=C/C(=O)CC(=O)/C=C/c2ccc(OCCN)c(OCCN)c2)cc1OCCN` [Curcumin 03 hydrochloride], in the assay with E. coli ATCC 25922 [1] (setting [3]), the log reduction at 10 µM was above 7 and the log reduction at 50 µM was above 7. Besides, in the assay on E. coli ATCC 25922 [1] (setting [4]), the log reduction at 10 µM was above 7 and the log reduction at 50 µM is above 7. In the assay on E. coli ATCC 25922 [2], the “Effectiveness against E. Coli: Reduction in CFU in log10 at concentration of 10 μM” value is reported as above 4 log10 and the “Effectiveness against E. Coli: Reduction in CFU in log10 at concentration of 50 μM” value is above 5 log10.
